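Assay format: 96-well plates, 48-hour exposure. GI50 marks 50% less growth.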 Activity calls are given as the source filed them. Cut-off read from the data, not from the text of the source: active = GI50 up to about 1.1 µM and inactive = higher.
Assays:
Test in all cases: growth of human tumour cells (NCI), 48 h
786-0 = tested on: 786-0
A498 = tested on: A498
A549 = tested on: A549
ACHN = tested on: ACHN
BT-549 = tested on: BT-549
CAKI-1 = tested on: CAKI-1
CCRF-CEM = tested on: CCRF-CEM
COLO 205 = tested on: COLO 205
DU-145 = tested on: DU-145
EKVX = tested on: EKVX
HCC 2998 = tested on: HCC 2998
HCT-116 = tested on: HCT-116
HCT-15 = tested on: HCT-15
HL-60 = tested on: HL-60
HOP-62 = tested on: HOP-62
HOP-92 = tested on: HOP-92
HT-29 = tested on: HT-29
Hs-578T = tested on: Hs-578T
IGROV-1 = tested on: IGROV-1
K562 = tested on: K562
KM12 = tested on: KM12
LOX IMVI = tested on: LOX IMVI
M14 = tested on: M14
MCF7 = tested on: MCF7
MDA-MB-231 = tested on: MDA-MB-231
MDA-MB-435 = tested on: MDA-MB-435
MDA-N = tested on: MDA-N
MOLT-4 = tested on: MOLT-4
Malme-3M = tested on: Malme-3M
NCI-H226 = tested on: NCI-H226
NCI-H23 = tested on: NCI-H23
NCI-H460 = tested on: NCI-H460
NCI-H522 = tested on: NCI-H522
NCI/ADR-RES = tested on: NCI/ADR-RES
OVCAR-3 = tested on: OVCAR-3
OVCAR-4 = tested on: OVCAR-4
OVCAR-5 = tested on: OVCAR-5
OVCAR-8 = tested on: OVCAR-8
PC-3 = tested on: PC-3
RPMI-8226 = tested on: RPMI-8226
RXF 393 = tested on: RXF 393
SF-268 = tested on: SF-268
SF-295 = tested on: SF-295
SF-539 = tested on: SF-539
SK-MEL-28 = tested on: SK-MEL-28
SK-MEL-2 = tested on: SK-MEL-2
SK-MEL-5 = tested on: SK-MEL-5
SK-OV-3 = tested on: SK-OV-3
SN12C = tested on: SN12C
SNB-19 = tested on: SNB-19
SNB-75 = tested on: SNB-75
SR = tested on: SR
SW-620 = tested on: SW-620
T47D = tested on: T47D
TK-10 = tested on: TK-10
U-251 = tested on: U-251
UACC-257 = tested on: UACC-257
UACC-62 = tested on: UACC-62
UO-31 = tested on: UO-31

Question: How did the GI50 (786-0) turn out when `O=C(c1ccccc1)c1ccc(C(c2c(O)c3ccccc3oc2=O)c2c(O)c3ccccc3oc2=O)cc1` was run?
Answer: 21.2 µM (inactive)

Question: What about the GI50 (A498) of the same molecule?
Answer: 24.5 µM (inactive)

Question: And the GI50 (A549)?
Answer: 26.9 µM (inactive)

Question: What about the GI50 (ACHN) of the same molecule?
Answer: 20 µM (inactive)

Question: What about the GI50 (BT-549) of the same molecule?
Answer: 22.5 µM (inactive)

Question: What about the GI50 (CAKI-1) of the same molecule?
Answer: 16.8 µM (inactive)

Question: What about the GI50 (CCRF-CEM) of the same molecule?
Answer: 27.9 µM (inactive)

Question: What about the GI50 (COLO 205) of the same molecule?
Answer: 31.7 µM (inactive)

Question: And the GI50 (DU-145)?
Answer: 31.2 µM (inactive)

Question: What about the GI50 (EKVX) of the same molecule?
Answer: 28 µM (inactive)

Question: And the GI50 (HCC 2998)?
Answer: 21 µM (inactive)

Question: And the GI50 (HCT-116)?
Answer: 26.7 µM (inactive)

Question: What about the GI50 (HCT-15) of the same molecule?
Answer: 30.5 µM

Question: And the GI50 (HL-60)?
Answer: 34.1 µM (inactive)

Question: And the GI50 (HOP-62)?
Answer: 28.7 µM (inactive)

Question: And the GI50 (HOP-92)?
Answer: 18.5 µM (inactive)

Question: And the GI50 (HT-29)?
Answer: 25.1 µM (inactive)

Question: And the GI50 (Hs-578T)?
Answer: 24.7 µM (inactive)

Question: And the GI50 (IGROV-1)?
Answer: 23.3 µM (inactive)

Question: What about the GI50 (K562) of the same molecule?
Answer: 33.5 µM (inactive)

Question: What about the GI50 (KM12) of the same molecule?
Answer: 18.7 µM (inactive)

Question: What about the GI50 (LOX IMVI) of the same molecule?
Answer: 29.9 µM (inactive)

Question: What about the GI50 (M14) of the same molecule?
Answer: 24.7 µM (inactive)

Question: What about the GI50 (MCF7) of the same molecule?
Answer: 34.5 µM (inactive)

Question: What about the GI50 (MDA-MB-231) of the same molecule?
Answer: 26.7 µM (inactive)

Question: What about the GI50 (MDA-MB-435) of the same molecule?
Answer: 29.4 µM (inactive)

Question: And the GI50 (MDA-N)?
Answer: 28.2 µM (inactive)

Question: What about the GI50 (MOLT-4) of the same molecule?
Answer: 19.5 µM (inactive)

Question: And the GI50 (Malme-3M)?
Answer: 17.9 µM (inactive)

Question: What about the GI50 (NCI-H226) of the same molecule?
Answer: 23.3 µM (inactive)

Question: And the GI50 (NCI-H23)?
Answer: 20 µM (inactive)

Question: And the GI50 (NCI-H460)?
Answer: 40.8 µM (inactive)

Question: What about the GI50 (NCI-H522) of the same molecule?
Answer: 16.6 µM (inactive)

Question: What about the GI50 (NCI/ADR-RES) of the same molecule?
Answer: 22.9 µM (inactive)

Question: And the GI50 (OVCAR-3)?
Answer: 26.2 µM (inactive)

Question: What about the GI50 (OVCAR-4) of the same molecule?
Answer: 26.9 µM (inactive)

Question: What about the GI50 (OVCAR-5) of the same molecule?
Answer: 23.4 µM (inactive)

Question: And the GI50 (OVCAR-8)?
Answer: 27 µM (inactive)

Question: And the GI50 (PC-3)?
Answer: 27 µM (inactive)

Question: And the GI50 (RPMI-8226)?
Answer: 18.5 µM (inactive)

Question: What about the GI50 (RXF 393) of the same molecule?
Answer: 27.2 µM (inactive)

Question: And the GI50 (SF-268)?
Answer: 22.5 µM (inactive)

Question: And the GI50 (SF-295)?
Answer: 21.2 µM (inactive)

Question: And the GI50 (SF-539)?
Answer: 30.3 µM (inactive)

Question: What about the GI50 (SK-MEL-28) of the same molecule?
Answer: 28.8 µM (inactive)

Question: What about the GI50 (SK-MEL-2) of the same molecule?
Answer: 28.2 µM (inactive)

Question: And the GI50 (SK-MEL-5)?
Answer: 24.5 µM (inactive)

Question: What about the GI50 (SK-OV-3) of the same molecule?
Answer: 18.9 µM (inactive)

Question: What about the GI50 (SN12C) of the same molecule?
Answer: 28.4 µM (inactive)

Question: And the GI50 (SNB-19)?
Answer: 19.6 µM (inactive)

Question: What about the GI50 (SNB-75) of the same molecule?
Answer: 19.1 µM (inactive)

Question: And the GI50 (SR)?
Answer: 20.1 µM (inactive)

Question: What about the GI50 (SW-620) of the same molecule?
Answer: 43.9 µM (inactive)

Question: And the GI50 (T47D)?
Answer: 34.2 µM (inactive)

Question: And the GI50 (TK-10)?
Answer: 17.9 µM (inactive)

Question: And the GI50 (U-251)?
Answer: 26.6 µM (inactive)

Question: And the GI50 (UACC-257)?
Answer: 22.8 µM (inactive)

Question: What about the GI50 (UACC-62) of the same molecule?
Answer: 17.3 µM (inactive)

Question: And the GI50 (UO-31)?
Answer: 14.8 µM (inactive)

Question: Which GI50 (786-0) does the source give for `COC(=O)/C=C1/OC(c2ccc(C)cc2)=C(Cl)C1=O` here?
Answer: 13.9 µM (inactive)

Question: What about the GI50 (A498) of the same molecule?
Answer: 17.9 µM (inactive)

Question: What about the GI50 (A549) of the same molecule?
Answer: 20.1 µM (inactive)

Question: What about the GI50 (ACHN) of the same molecule?
Answer: 16.7 µM (inactive)

Question: And the GI50 (BT-549)?
Answer: 17.7 µM (inactive)

Question: What about the GI50 (CAKI-1) of the same molecule?
Answer: 16 µM (inactive)

Question: And the GI50 (CCRF-CEM)?
Answer: 3.26 µM (inactive)

Question: And the GI50 (COLO 205)?
Answer: 11.2 µM (inactive)

Question: What about the GI50 (DU-145) of the same molecule?
Answer: 17.7 µM (inactive)

Question: What about the GI50 (EKVX) of the same molecule?
Answer: 21.3 µM (inactive)

Question: And the GI50 (HCC 2998)?
Answer: 18.9 µM (inactive)

Question: What about the GI50 (HCT-116) of the same molecule?
Answer: 11.7 µM (inactive)

Question: And the GI50 (HCT-15)?
Answer: 9.25 µM

Question: And the GI50 (HL-60)?
Answer: 3.31 µM (inactive)

Question: And the GI50 (HOP-62)?
Answer: 19.9 µM (inactive)

Question: What about the GI50 (HOP-92) of the same molecule?
Answer: 15.2 µM (inactive)

Question: What about the GI50 (HT-29) of the same molecule?
Answer: 12.9 µM (inactive)

Question: What about the GI50 (Hs-578T) of the same molecule?
Answer: 22.9 µM (inactive)

Question: What about the GI50 (IGROV-1) of the same molecule?
Answer: 16.5 µM (inactive)

Question: What about the GI50 (K562) of the same molecule?
Answer: 4.97 µM (inactive)

Question: What about the GI50 (KM12) of the same molecule?
Answer: 14.6 µM (inactive)

Question: What about the GI50 (LOX IMVI) of the same molecule?
Answer: 9.2 µM (inactive)

Question: What about the GI50 (M14) of the same molecule?
Answer: 18.1 µM (inactive)

Question: What about the GI50 (MCF7) of the same molecule?
Answer: 16.1 µM (inactive)

Question: What about the GI50 (MDA-MB-231) of the same molecule?
Answer: 16.9 µM (inactive)

Question: And the GI50 (MDA-MB-435)?
Answer: 17.8 µM (inactive)

Question: What about the GI50 (MDA-N) of the same molecule?
Answer: 16.4 µM (inactive)

Question: What about the GI50 (MOLT-4) of the same molecule?
Answer: 4.23 µM (inactive)

Question: And the GI50 (Malme-3M)?
Answer: 17.7 µM (inactive)

Question: What about the GI50 (NCI-H226) of the same molecule?
Answer: 23 µM (inactive)

Question: And the GI50 (NCI-H23)?
Answer: 19 µM (inactive)

Question: And the GI50 (NCI-H460)?
Answer: 22 µM (inactive)

Question: And the GI50 (NCI-H522)?
Answer: 9.4 µM (inactive)

Question: What about the GI50 (NCI/ADR-RES) of the same molecule?
Answer: 22.1 µM (inactive)

Question: And the GI50 (OVCAR-3)?
Answer: 12.4 µM (inactive)

Question: And the GI50 (OVCAR-4)?
Answer: 13.3 µM (inactive)

Question: And the GI50 (OVCAR-5)?
Answer: 19.1 µM (inactive)

Question: What about the GI50 (OVCAR-8) of the same molecule?
Answer: 16.9 µM (inactive)

Question: What about the GI50 (PC-3) of the same molecule?
Answer: 13.8 µM (inactive)

Question: And the GI50 (RPMI-8226)?
Answer: 3.18 µM (inactive)

Question: What about the GI50 (RXF 393) of the same molecule?
Answer: 7.66 µM (inactive)

Question: And the GI50 (SF-268)?
Answer: 16.4 µM (inactive)

Question: What about the GI50 (SF-295) of the same molecule?
Answer: 19.8 µM (inactive)

Question: And the GI50 (SF-539)?
Answer: 16.6 µM (inactive)

Question: And the GI50 (SK-MEL-28)?
Answer: 16.7 µM (inactive)

Question: And the GI50 (SK-MEL-2)?
Answer: 16.7 µM (inactive)

Question: And the GI50 (SK-MEL-5)?
Answer: 14.5 µM (inactive)

Question: What about the GI50 (SK-OV-3) of the same molecule?
Answer: 24.2 µM (inactive)

Question: And the GI50 (SN12C)?
Answer: 17.9 µM (inactive)

Question: And the GI50 (SNB-19)?
Answer: 22.2 µM (inactive)

Question: What about the GI50 (SNB-75) of the same molecule?
Answer: 16.7 µM (inactive)

Question: And the GI50 (SR)?
Answer: 0.489 µM (active)

Question: What about the GI50 (SW-620) of the same molecule?
Answer: 10.7 µM (inactive)

Question: And the GI50 (T47D)?
Answer: 15.3 µM (inactive)

Question: What about the GI50 (TK-10) of the same molecule?
Answer: 20.5 µM (inactive)

Question: And the GI50 (U-251)?
Answer: 12 µM (inactive)

Question: What about the GI50 (UACC-257) of the same molecule?
Answer: 20.3 µM (inactive)

Question: What about the GI50 (UACC-62) of the same molecule?
Answer: 17.1 µM (inactive)

Question: What about the GI50 (UO-31) of the same molecule?
Answer: 17.5 µM (inactive)
